# Columns and labels:
# [1] = tested on: MG-63 (Osteosarcoma); test: Bliss excess, mean over the matrix (fraction); higher = more synergy
# Summary of the method: (§1)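 Cell lines grown in DMEM/F12 or RPMI with 10% FBS were plated in 1536-well plates and held 24 hours at 37°C, 5% CO2 before 72 hours of exposure to two-drug dose matrices, with DMSO typically at 0.2%. CellTiter-Glo 2.0 luminescence gave viability, which was converted to inhibition. Vehicle wells were set to 0 and blank wells to 1. Combination Emax is the second-highest inhibition in the matrix, and Bliss excess is the observed combination effect minus the expected EA + EB − EA·EB, where EA and EB are the single-agent effects.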
# [2] = tested on: MRK-nu-1 (Breast Carcinoma); test: as above
# Summary of the method: as §1
# [3] = tested on: NCI-H835 (Other Solid Carcinomas); test: as above
# Summary of the method: as §1
# [4] = tested on: OVKATE (Ovarian Carcinoma); test: as above
# Summary of the method: as §1
# [5] = tested on: SBC-3 (Small Cell Lung Carcinoma); test: as above
# Summary of the method: as §1
# [6] = tested on: SBC-5 (Small Cell Lung Carcinoma); test: as above
# Summary of the method: as §1
# [7] = tested on: SCC90 (Head and Neck Carcinoma); test: as above
# Summary of the method: as §1
# [8] = tested on: SUP-HD1 (Hodgkin's Lymphoma); test: as above
# Summary of the method: as §1
# [9] = tested on: ATN-1 (T-Lymphoblastic Leukemia); test: combination Emax (second highest fraction inhibited in the dose matrix, 72 h); higher = more inhibition; extreme values may be limits of the assay
# Summary of the method: as §1
# [10] = tested on: BT-474 (Breast Carcinoma); test: as above
# Summary of the method: as §1
# [11] = tested on: GCIY (Gastric Carcinoma); test: as above
# Summary of the method: as §1
# [12] = tested on: GRANTA-519 (B-Cell Non-Hodgkin's Lymphoma); test: as above
# Summary of the method: as §1
# [13] = tested on: JURL-MK1 (Chronic Myelogenous Leukemia); test: as above
# Summary of the method: as §1
# [14] = tested on: L-363 (Plasma Cell Myeloma); test: as above
# Summary of the method: as §1
# [15] = tested on: NCI-H1048 (Small Cell Lung Carcinoma); test: as above
# Summary of the method: as §1
# [16] = tested on: NCI-H1944 (Lung Adenocarcinoma); test: as above
# Summary of the method: as §1
# [17] = tested on: NCI-H2452 (Mesothelioma); test: as above
# Summary of the method: as §1
# [18] = tested on: SK-MEL-24 (Melanoma); test: as above
# Summary of the method: as §1
# [19] = tested on: SK-N-DZ (Neuroblastoma); test: as above
# Summary of the method: as §1
# [20] = tested on: SUP-HD1 (Hodgkin's Lymphoma); test: as above
# Summary of the method: as §1
# 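Wherever Bliss excess, mean over the matrix is given: after 72 h of two-drug dosing.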
SMILES,Bliss excess [1],Bliss excess [2],Bliss excess [3],Bliss excess [4],Bliss excess [5],Bliss excess [6],Bliss excess [7],Bliss excess [8],combination Emax [9],combination Emax [10],combination Emax [11],combination Emax [12],combination Emax [13],combination Emax [14],combination Emax [15],combination Emax [16],combination Emax [17],combination Emax [18],combination Emax [19],combination Emax [20]
"C=CCn1c(=O)c2cnc(Nc3ccc(N4CCN(C)CC4)cc3)nc2n1-c1cccc(C(C)(C)O)n1 [AZD1775] + C1CN(CCC1(C(=O)N[C@@H](CCO)C2=CC=C(C=C2)Cl)N)C3=NC=NC4=C3C=CN4 [Capivasertib] (first compound max 3 µM, partner max 3 µM)",-0.0484,-0.0885,-0.0572,-0.0239,-0.0786,0.0256,-0.0309,-0.0378,0.994,0.47,0.668,0.865,0.986,0.939,0.91,0.861,0.816,0.503,0.921,0.736
"CN(CCO)CC[C@H](CSc1ccccc1)Nc1ccc(S(=O)(=O)NC(=O)c2ccc(N3CCC([C@@H](O)c4ccccc4-c4ccc(Cl)cc4)CC3)cc2)cc1S(=O)(=O)C(F)(F)F [AZD4320] + CC(=O)O[C@H]1C(=O)[C@@]2(C)[C@H]([C@H](OC(=O)c3ccccc3)[C@]3(O)C[C@H](OC(=O)[C@H](O)[C@@H](NC(=O)c4ccccc4)c4ccccc4)C(C)=C1C3(C)C)[C@]1(OC(C)=O)CO[C@@H]1C[C@@H]2O [Paclitaxel] (first compound max 1 µM, 7x7, partner max 3 µM)",0.0471,0.0162,0.199,0.113,0.0387,,,,,,0.952,,,1,,,0.983,0.888,,
"CN(CCO)CC[C@H](CSc1ccccc1)Nc1ccc(S(=O)(=O)NC(=O)c2ccc(N3CCC([C@@H](O)c4ccccc4-c4ccc(Cl)cc4)CC3)cc2)cc1S(=O)(=O)C(F)(F)F [AZD4320] + CCN(CCO)CCCOc1ccc2c(Nc3cc(CC(=O)Nc4cccc(F)c4)[nH]n3)ncnc2c1 [AZD2811] (first compound max 1 µM, 7x7, partner max 1 µM)",0.0838,0.0505,,-0.0204,0.0224,-0.0075,0.134,0.0476,0.939,0.319,0.554,0.993,0.929,0.135,0.933,0.584,0.364,0.226,0.787,0.966
"CN(CCO)CC[C@H](CSc1ccccc1)Nc1ccc(S(=O)(=O)NC(=O)c2ccc(N3CCC([C@@H](O)c4ccccc4-c4ccc(Cl)cc4)CC3)cc2)cc1S(=O)(=O)C(F)(F)F [AZD4320] + Cc1cc2ncnn2cc1Nc1ncc2c(n1)n(C1CCOCC1)c(=O)n2C [AZD7648] (first compound max 1 µM, 7x7, partner max 10 µM)",-0.0463,0.0501,,-0.0269,-0.0767,-0.032,0.0682,0.0039,0.778,0.154,0.609,0.829,0.827,0.211,0.884,0.464,0.386,0.252,0.651,0.939
"CN(CCO)CC[C@H](CSc1ccccc1)Nc1ccc(S(=O)(=O)NC(=O)c2ccc(N3CCC([C@@H](O)c4ccccc4-c4ccc(Cl)cc4)CC3)cc2)cc1S(=O)(=O)C(F)(F)F [AZD4320] + Nc1ccn([C@@H]2O[C@H](CO)[C@@H](O)C2(F)F)c(=O)n1 [Gemcitabine] (first compound max 1 µM, 7x7, partner max 0.3 µM)",0.0293,0.0117,0.0682,-0.0542,0.0194,,,,,,0.782,,,0.458,,,0.355,0.901,,
"Cc1cc2ncnn2cc1Nc1ncc2c(n1)n(C1CCOCC1)c(=O)n2C [AZD7648] + C=CCn1c(=O)c2cnc(Nc3ccc(N4CCN(C)CC4)cc3)nc2n1-c1cccc(C(C)(C)O)n1 [AZD1775] (first compound max 10 µM, partner max 1 µM)",0.0269,0.0279,0.0229,-0.001,-0.0374,-0.0136,0.0276,-0.0943,1,0.324,0.49,0.8,0.99,0.979,0.747,0.583,0.663,0.495,0.927,0.785
"Cc1cc2ncnn2cc1Nc1ncc2c(n1)n(C1CCOCC1)c(=O)n2C [AZD7648] + CCN(CCO)CCCOc1ccc2c(Nc3cc(CC(=O)Nc4cccc(F)c4)[nH]n3)ncnc2c1 [AZD2811] (first compound max 10 µM, 7x7, partner max 1 µM)",0.0401,0.0245,0.0595,-0.0834,0.0455,0.057,0.0511,0.0506,0.832,0.237,0.49,0.414,0.601,0.413,0.706,0.415,0.497,0.373,0.635,0.434
"Cc1cc2ncnn2cc1Nc1ncc2c(n1)n(C1CCOCC1)c(=O)n2C [AZD7648] + CN(C)CCCOc1ccc(-c2ccc3ncc4c(c3c2)n(C2CCOCC2)c(=O)n4C)cn1 [AZD0156] (first compound max 10 µM, 7x7, partner max 1 µM)",0.0397,0.0348,0.0086,-0.0132,0.0332,0.0236,0.0055,-0.0306,0.481,0.234,0.437,0.249,0.406,0.393,0.407,0.29,0.42,0.28,0.31,0.199
"Cc1cc2ncnn2cc1Nc1ncc2c(n1)n(C1CCOCC1)c(=O)n2C [AZD7648] + C[C@@H]1COCCN1C2=NC(=NC(=C2)C3(CC3)[S@](=N)(=O)C)C4=C5C=CNC5=NC=C4 [AZD6738] (first compound max 10 µM, 7x7, partner max 10 µM)",0.0557,0.0054,0.0417,0.0232,0,0.0284,0.0385,-0.0375,0.995,0.24,0.774,0.808,1,0.849,0.508,0.77,0.525,0.509,0.949,0.751
"Cc1cc2ncnn2cc1Nc1ncc2c(n1)n(C1CCOCC1)c(=O)n2C [AZD7648] + O=C(c1cc(Cc2n[nH]c(=O)c3ccccc23)ccc1F)N1CCN(C(=O)C2CC2)CC1 [Olaparib] (first compound max 10 µM, 7x7, partner max 10 µM)",0.0014,-0.0615,,-0.0688,-0.0148,-0.034,-0.0364,0.0862,0.356,0.117,0.342,0.251,0.543,0.231,0.412,0.246,0.266,0.211,0.278,0.465
"Cc1nc(Nc2ncc(C(=O)Nc3c(C)cccc3Cl)s2)cc(N2CCN(CCO)CC2)n1 [Dasatinib] + CC(=O)Nc1cccc(-n2c(=O)n(C3CC3)c(=O)c3c(Nc4ccc(I)cc4F)n(C)c(=O)c(C)c32)c1 [Trametinib] (first compound max 2 µM, 7x7, partner max 1 µM)",-0.0066,-0.0688,-0.0662,-0.0147,0.0453,0.025,-0.165,-0.0782,0.591,0.0101,0.83,0.205,1,0.146,0.144,0.65,0.804,0.815,0.192,0.202
"N#Cc1cnc(Nc2cc(NC[C@H]3CNCCO3)c(C(F)(F)F)cn2)cn1 [SRA737] + C=CCn1c(=O)c2cnc(Nc3ccc(N4CCN(C)CC4)cc3)nc2n1-c1cccc(C(C)(C)O)n1 [AZD1775] (first compound max 10 µM, partner max 1 µM)",0.0974,0.0988,0.01,-0.0409,0.155,,,,,,0.611,,,0.937,,,0.722,0.46,,
"N#Cc1cnc(Nc2cc(NC[C@H]3CNCCO3)c(C(F)(F)F)cn2)cn1 [SRA737] + Nc1ccn([C@@H]2O[C@H](CO)[C@@H](O)C2(F)F)c(=O)n1 [Gemcitabine] (first compound max 10 µM, 7x7, partner max 0.3 µM)",0.124,0.0214,-0.0363,0.0092,0.0064,,,,,,0.78,,,0.986,,,0.737,0.814,,
"N#Cc1cnc(Nc2cc(NC[C@H]3CNCCO3)c(C(F)(F)F)cn2)cn1 [SRA737] + O=c1[nH]cc(F)c(=O)[nH]1 [5-Fluorouracil] (first compound max 10 µM, 7x7, partner max 20 µM)",0.0106,0.0291,0.0621,-0.0286,-0.0447,,,,,,0.505,,,0.934,,,0.513,0.314,,
"C[C@@H](c1ccc2nccn2c1)n1nnc2ncc(-c3cnn(C)c3)nc21 [Savolitinib] + CN(CC[C@H](CSC1=CC=CC=C1)NC2=C(C=C(C=C2)S(=O)(=O)NC(=O)C3=CC=C(C=C3)N4CCC(CC4)[C@H](C5=CC=CC=C5C6=CC=C(C=C6)Cl)O)S(=O)(=O)C(F)(F)F)CCO [AZD4320] (first compound max 1 µM, 7x7, partner max 1 µM)",,,,,,-0.0003,0.0447,0.0355,0.679,0.262,,0.898,0.889,,0.593,0.369,,,0.784,0.941
